Test results: PMC11597387 (Molecules, 2024)
Several values for one entry are separate records, joined by “and”; a condition that tells them apart may be missing. Equal entries are not always repeated. Where two headings read alike, the source gives them in different places.

Columns and labels:
[1] = pKa determination by UV/vis spectrometric method; assay type: physicochemical; conditions: buffers I = 0.1 M, 1% methanol
Excerpt: For the successful determination of pKa values using the UV/vis spectrometric method, the UV/vis absorbance of the sample must change as a function of ionization. […] For the other investigated compounds, the spectra and results of data analysis are presented in the Supporting Information (Figures S1–S3). […] At lower pH values, the molecules are neutral with an absorption maximum between 311 nm and 343 nm. At the highest pH value, only deprotonated species are present with two absorption maxima, one at a wavelength around 370 nm and the other around 305 nm. […] Data analysis for the determination of ionization constants by spectral analysis applied in this study is described by Tomsho et al. and Ríos Martínez and Dardonville.
The results of repeated measurements show satisfactory precision with scatter values less than or equal to 0.06 for all compounds [36].
Working solutions were prepared by 100-fold dilution of stock solutions with appropriate buffer solutions.
Chemicals used for preparation of buffers were sodium acetate (Alkaloid, Skopje, Macedonia), potassium dihydrogenphosphate (Lach-ner, Neratovice, Czech Republic), sodium hydrogencarbonate (Kemika, Zagreb, Croatia), and dipotassium hydrogenphosphate (Fisher Chemical, Loughborough, UK). Sodium hydroxide was supplied by Gram-mol (Zagreb, Croatia), and hydrochloric acid was supplied by VWR Chemicals (Leuven, Belgium). All chemicals used were of analytical grade and used as received. For the preparation of buffer solutions for spectrophotometric measurements, stock solutions of 0.1 M sodium acetate, 0.05 M potassium dihydrogen phosphate, 0.05 M sodium hydrogen carbonate, and 0.05 M dipotassium hydrogen phosphate were used. Sodium acetate/acetic acid buffer was used for pH range 3.5−5.0, KH2PO4/K2HPO4 for pH range 5.5–8.5, […] for pH range 9.0−11.0, and K2HPO4/K3PO4 for pH range 11.0−11.5. All buffer solutions were prepared with the same ionic strength (I = 0.1 M) by adding KCl (Lach-ner, Neratovice, Czech Republic).
The exact pH value of the prepared buffer solutions was measured with an S20 SevenEasy pH-meter (MettlerToledo, Greifenseea, Switzerland).
The data analysis was carried out in the entire specified range. However, due to high absorbance at short wavelengths and zero absorbance at wavelengths greater than 500 nm, spectra in the range from 250 nm to 500 nm are shown in the figures for a clearer presentation. […] Appropriate buffer solutions were used as a blank.
Data analysis included correction of the raw spectra (A(500 nm) = 0) and the calculation of the spectral difference, which were performed using Excel program. The spectral difference was determined between the spectra recorded at each pH and at the spectra recorded at the lowest pH. The wavelengths of maximum positive and negative deviations were determined from the spectral difference graph. The absolute values of the absorbance difference at the determined wavelengths were summed to obtain total absorbance difference. The dependence of the total absorbance difference on pH (spectral difference graph) gives a characteristic sigmoidal curve. […] (1) Total absorbace difference = STεHA−εA^−·10^(pH−pKa)/1+10^(pH−pKa) where [ST] is the total substance concentration, and εHA and εA^− represent the extinction coefficients of the acidic and basic form of the compound, respectively.
Measurements were performed using freshly prepared working solutions. For each resveratrol analogue and each pH, three consecutive measurements were made.

[2] = literature value, no reference given; cited from earlier work
[3] = mean of three determinations, read-out: pKa¯ ± Scatter Value
[4] = single determination (one of three)
[5] = single determination (one of three), read-out: pKa

Compound	pKa [1, 3]	pKa [1, 4]	pKa [1, 5]	experimental pKa^exp [2]
COc1ccc(/C=C/c2ccc(C)s2)c(O)c1 [Compound 6, (E)-5-Methoxy-2-(2-(5-methythiophen-2-yl)vinyl)phenol]	9.62	9.59 and 9.66	9.62	
COc1ccc(/C=C/c2cccs2)c(O)c1 [Compound 4, (E)-5-Methoxy-2-(2-(thiophen-2-yl)vinyl)phenol]	9.17 ± 0.06	9.21 and 9.11	9.19	
Cc1ccc(/C=C/c2ccccc2O)s1 [Compound 5, (E)-2-(2-(5-Methylthiophen-2-yl)vinyl)phenol]	9.4	9.36	9.45	
Oc1ccccc1/C=C/c1cccs1 [Compound 2, (E)-2-(2-(Thiophen-2-yl)vinyl)phenol]	9.88 ± 0.04	9.86 and 9.92	9.85	
COc1cccc(O)c1 [meta-methoxyphenol]				9.6
Oc1cccc(/C=C/c2cccs2)c1 [Compound 3, (E)-3-(2-(Thiophen-2-yl)vinyl)phenol]	10.1	10.05	10.1	
